Target: PARP7 (Homo sapiens (Human), UniProt Q7Z3E1)
Assay: In vitro enzymology experiment of PARP7 (enzymatic inhibition)
Assay type: biochemical
Experimental: II. In Vitro Enzymology Experiment of PARP2, 3, 5A, 5B, 7, 12, and 15
1. Preparation of 384-well histone-coated plate: 25 μL of histone solution was added to each well, and the plate was incubated overnight at 4° C.
2. Preparation of PBST buffer, blocking buffer, and assay buffer
3. The 384-well histone-coated plate was washed three times with PBST buffer. The plate was blocked by 50 μL of blocking buffer for 1 hour at room temperature. The plate was then washed three times with PBST buffer.
2000× compound was prepared in a 96-well source plate. 50 nL of the compound was transferred from the source plate to a 96-well intermediate plate, and 39.95 μL of assay buffer was added to each well. The plate was shaken well and centrifuged at 1000 rpm for 1 minute.
5 μL of compound DMSO solution was transferred to each well.
An enzyme mixture was incubated at 25° C. for 10 minutes.
10 μL of the enzyme mixture was added, and incubated with the compound at room temperature for 10 minutes.
10 μL of assay buffer was added to the negative control well of the assay plate.
The plate was then washed three times with PBST buffer.
25 μL of Stre-HRP was added.
The plate was incubated at room temperature for 1 hour and washed three times with PBS buffer.
25 μL of QuantaRed Enhancer mix was added. The plate was incubated for 10 minutes.
2.5 μL of QuantaRed Stop Solution was added to terminate the peroxidase reaction, and the plate was shaken for 10 to 30 seconds.
7. Paradigm was used to read the plate immediately to detect the readings at Ex550/Em620.
Using equation (1) to fit the data in Excel to obtain inhibition values
Using equation (2) to fit the data in XL-Fit to obtain IC50 values
Y is the percentage of inhibition, and X is the compound concentration.

Chain of PARP7 (Q7Z3E1 whole entry): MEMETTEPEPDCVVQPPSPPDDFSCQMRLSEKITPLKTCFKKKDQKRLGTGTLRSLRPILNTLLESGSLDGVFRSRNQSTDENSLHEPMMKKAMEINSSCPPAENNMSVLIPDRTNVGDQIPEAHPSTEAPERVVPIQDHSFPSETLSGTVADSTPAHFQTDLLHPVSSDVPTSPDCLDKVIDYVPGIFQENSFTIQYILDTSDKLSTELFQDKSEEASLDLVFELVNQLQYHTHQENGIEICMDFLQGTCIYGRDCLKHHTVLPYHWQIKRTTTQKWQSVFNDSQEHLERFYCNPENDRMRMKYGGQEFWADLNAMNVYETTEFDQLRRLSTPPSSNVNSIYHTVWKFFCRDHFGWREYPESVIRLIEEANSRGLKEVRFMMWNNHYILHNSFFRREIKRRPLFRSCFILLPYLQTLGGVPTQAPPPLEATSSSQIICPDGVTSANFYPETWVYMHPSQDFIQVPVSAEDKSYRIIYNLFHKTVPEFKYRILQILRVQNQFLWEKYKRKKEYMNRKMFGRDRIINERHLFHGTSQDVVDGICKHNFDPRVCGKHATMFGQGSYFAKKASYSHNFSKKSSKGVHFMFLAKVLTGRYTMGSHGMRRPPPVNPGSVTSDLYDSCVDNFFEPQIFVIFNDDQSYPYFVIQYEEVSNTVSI

| Compound | IC50 [nM] |
| --- | --- |
| C[C@@H](Cc1c[nH]c(=O)c(C(F)(F)F)c1)OC(=O)N1CCN(c2ncc(C(F)(F)F)cn2)C[C@@H]1CO [Example 78, (S)-1-(6-Oxo-5-(trifluoromethyl)-1,6-dihydropyridin-3-yl)propan-2-yl (R)-2-(hydroxymethyl)-4-(5-(trifluoromethyl)pyrimidin-2-yl)piperazine-1-carboxylate] | 1.4 |
| C[C@@H](Cc1c[nH]c(=O)c(C(F)(F)F)c1)OC(=O)N1CCN(c2ncc(C(F)(F)F)cn2)C[C@H]1CO [Example 79, (S)-1-(6-Oxo-5-(trifluoromethyl)-1,6-dihydropyridin-3-yl)propan-2-yl (S)-2-(hydroxymethyl)-4-(5-(trifluoromethyl)pyrimidin-2-yl)piperazine-1-carboxylate] | 0.68 |
| C[C@@H](Cc1c[nH]c(=O)c(C(F)(F)F)c1)OC(=O)N1CCN(c2ncc(C(F)(F)F)cn2)[C@H](CO)C1 [Example 80, (S)-1-(6-Oxo-5-(trifluoromethyl)-1,6-dihydropyridin-3-yl)propan-2-yl (S)-3-(hydroxymethyl)-4-(5-(trifluoromethyl)pyrimidin-2-yl)piperazine-1-carboxylate] | 1.5 |
| Cc1c(C[C@H](C)OC(=O)N2CCN(c3ncc(C(F)(F)F)cn3)CC2)c[nH]c(=O)c1C(F)(F)F [Example 81, (S)-1-(4-Methyl-6-oxo-5-(trifluoromethyl)-1,6-dihydropyridin-3-yl)propan-2-yl 4-(5-(trifluoromethyl)pyrimidin-2-yl)piperazine-1-carboxylate] | 0.75 |
| O=C(O[C@H]1CCC[C@H]1c1c[nH]c(=O)c(C(F)(F)F)c1)N1CCN(c2ncc(C(F)(F)F)cn2)CC1 [Example 82, (1S,2S)-2-(6-Oxo-5-(trifluoromethyl)-1,6-dihydropyridin-3-yl)cyclopentyl 4-(5-(trifluoromethyl)pyrimidin-2-yl)piperazine-1-carboxylate] | 1.44 |
| CC(OC[C@@H]1CCCN1c1c[nH]c(=O)c(C(F)(F)F)c1)C(=O)N1CCN(c2ncc(C(F)(F)F)cn2)CC1 (stereo partly drawn) [Example 83] | 1.38 |
| Cc1cnc(N2CCN(C(=O)O[C@@H](C)Cc3c[nH]c(=O)c(C(F)(F)F)c3)CC2)nc1 [Example 84, (S)-1-(6-Oxo-5-(trifluoromethyl)-1,6-dihydropyridin-3-yl)propan-2-yl 4-(5-methylpyrimidin-2-yl)piperazine-1-carboxylate] | 0.52 |
| C[C@@H](Cc1c[nH]c(=O)c(C(F)(F)F)c1)OC(=O)N1CCN(c2ncc(Cl)cn2)CC1 [Example 85, (S)-1-(6-Oxo-5-(trifluoromethyl)-1,6-dihydropyridin-3-yl)propan-2-yl 4-(5-chloropyrimidin-2-yl)piperazine-1-carboxylate] | 0.56 |
| C[C@@H](Cc1c[nH]c(=O)c(C(F)(F)F)c1)OC(=O)N1CCN(c2ccc(C(F)(F)F)cn2)CC1 [Example 86, (S)-1-(6-Oxo-5-(trifluoromethyl)-1,6-dihydropyridin-3-yl)propan-2-yl 4-(5-(trifluoromethyl)pyridin-2-yl)piperazine-1-carboxylate] | 0.6 |
| CNC(=O)c1cnc(N2CCN(C(=O)O[C@@H](C)Cc3c[nH]c(=O)c(C(F)(F)F)c3)CC2)nc1 [Example 87, (S)-1-(6-Oxo-5-(trifluoromethyl)-1,6-dihydropyridin-3-yl)propan-2-yl 4-(5-(methylcarbamoyl)pyrimidin-2-yl)piperazine-1-carboxylate] | 0.5 |
| CNC(=O)c1ccc(N2CCN(C(=O)O[C@@H](C)Cc3c[nH]c(=O)c(C(F)(F)F)c3)CC2)cn1 [Example 88, (S)-1-(6-Oxo-5-(trifluoromethyl)-1,6-dihydropyridin-3-yl)propan-2-yl 4-(6-(methylcarbamoyl)pyridin-3-yl)piperazine-1-carboxylate] | 1.98 |
| C[C@@H](Cc1c[nH]c(=O)c(C(F)(F)F)c1)OC(=O)N1CCN(C(=O)C2CC2)CC1 [Example 90, (S)-1-(6-Oxo-5-(trifluoromethyl)-1,6-dihydropyridin-3-yl)propan-2-yl 4-(cyclopropanecarbonyl)piperazine-1-carboxylate] | 1.08 |
| C[C@@H]1CN(c2ncc(C(F)(F)F)cn2)CCN1C(=O)O[C@@H](C)Cc1c[nH]c(=O)c(C(F)(F)F)c1 [Example 91, (S)-1-(6-Oxo-5-(trifluoromethyl)-1,6-dihydropyridin-3-yl)propan-2-yl (R)-2-methyl-4-(5-(trifluoromethyl)pyrimidin-2-yl)piperazine-1-carboxylate] | 0.78 |
| C[C@@H](Cc1c[nH]c(=O)c(C(F)(F)F)c1)OC(=O)N1CCN(c2ncc(C(F)(F)F)cn2)C[C@@H]1C [Example 92, (S)-1-(6-Oxo-5-(trifluoromethyl)-1,6-dihydropyridin-3-yl)propan-2-yl (S)-2-methyl-4-(5-(trifluoromethyl)pyrimidin-2-yl)piperazine-1-carboxylate] | 0.19 |
| C[C@@H]1CN(C(=O)O[C@@H](C)Cc2c[nH]c(=O)c(C(F)(F)F)c2)CCN1c1ncc(C(F)(F)F)cn1 [Example 94, (S)-1-(6-Oxo-5-(trifluoromethyl)-1,6-dihydropyridin-3-yl)propan-2-yl (R)-3-methyl-4-(5-(trifluoromethyl)pyrimidin-2-yl)piperazine-1-carboxylate] | 0.68 |
| O=C(Oc1cccc(-c2c[nH]c(=O)c(C(F)(F)F)c2)c1)N1CCN(c2ncc(C(F)(F)F)cn2)CC1 [Example 95, 3-(6-Oxo-5-(trifluoromethyl)-1,6-dihydropyridin-3-yl)phenyl 4-(5-(trifluoromethyl)pyrimidin-2-yl)piperazine-1-carboxylate] | 0.72 |
| O=C(Cc1cccc(-c2c[nH]c(=O)c(C(F)(F)F)c2)c1)N1CCN(c2ncc(C(F)(F)F)cn2)CC1 [Example 96, 5-(3-(2-Oxo-2-(4-(5-(trifluoromethyl)pyrimidin-2-yl)piperazin-1-yl)ethyl)phenyl)-3-(trifluoromethyl)pyridin-2(1H)-one] | 1.03 |
| C[C@@H](Cc1c[nH]c(=O)c(C(F)(F)F)c1)OC(=O)N1CCN(c2ccc(C(F)(F)F)cc2)CC1 [Example 97, (S)-1-(6-Oxo-5-(trifluoromethyl)-1,6-dihydropyridin-3-yl)propan-2-yl 4-(4-(trifluoromethyl)phenyl)piperazine-1-carboxylate] | 0.86 |
| C[C@@H](Cc1c[nH]c(=O)c(C(F)(F)F)c1)OC(=O)N1CC=C(c2ccc(C(F)(F)F)cn2)CC1 [Example 98, (S)-1-(6-Oxo-5-(trifluoromethyl)-1,6-dihydropyridin-3-yl)propan-2-yl 5-(trifluoromethyl)-3′,6′-dihydro-[2,4′-bipyridine]-1′(2′H)-carboxylate] | 0.83 |
| C[C@@H](Cc1c[nH]c(=O)c(C(F)(F)F)c1)OC(=O)N1CCC(c2ccc(C(F)(F)F)cn2)CC1 [Example 99, (S)-1-(6-Oxo-5-(trifluoromethyl)-1,6-dihydropyridin-3-yl)propan-2-yl 4-(5-(trifluoromethyl)pyridin-2-yl)piperidine-1-carboxylate] | 0.56 |
| C[C@@H](Cc1c[nH]c(=O)c(C(F)(F)F)c1)OC(=O)N1CCN(c2ncc(C(C)(C)O)cn2)CC1 [Example 100, (S)-1-(6-Oxo-5-(trifluoromethyl)-1,6-dihydropyridin-3-yl)propan-2-yl 4-(5-(2-hydroxypropan-2-yl)pyrimidin-2-yl)piperazine-1-carboxylate] | 0.61 |
| C[C@@H](Cc1c[nH]c(=O)c(C(F)(F)F)c1)OC(=O)N1CCN(c2ncc(S(C)(=O)=O)cn2)CC1 [Example 101, (S)-1-(6-Oxo-5-(trifluoromethyl)-1,6-dihydropyridin-3-yl)propan-2-yl 4-(5-(methylsulfonyl)pyrimidin-2-yl)piperazine-1-carboxylate] | 0.67 |
| CC(Cc1c[nH]c(=O)c2ccccc12)OC(=O)N1CCN(c2ncc(C(F)(F)F)cn2)CC1 (stereo not drawn) [Example 102, 1-(1-Oxo-1,2-dihydroisoquinolin-4-yl)propan-2-yl 4-(5-(trifluoromethyl)pyrimidin-2-yl)piperazine-1-carboxylate] | 0.95 |
| O=C(OCCc1c[nH]c(=O)c(C(F)(F)F)c1)N1CCN(c2ncc(C(F)(F)F)cn2)[C@@H](CO)C1 [Example 104, 2-(6-Oxo-5-(trifluoromethyl)-1,6-dihydropyridin-3-yl)ethyl (R)-3-(hydroxymethyl)-4-(5-(trifluoromethyl)pyrimidin-2-yl)piperazine-1-carboxylate] | 0.53 |
| Cc1cnc(N2CCN(C(=O)OCCc3c[nH]c(=O)c(C(F)(F)F)c3)CC2)nc1 [Example 105] | 0.92 |
| O=C(OCCc1c[nH]c(=O)c(C(F)(F)F)c1)N1CCN(c2ccc(C(F)(F)F)cn2)CC1 [Example 106, 2-(6-Oxo-5-(trifluoromethyl)-1,6-dihydropyridin-3-yl)ethyl 4-(5-(trifluoromethyl)pyridin-2-yl)piperazine-1-carboxylate] | 0.46 |
| O=C(OCCc1c[nH]c(=O)c(C(F)(F)F)c1)N1CCN(c2ncc(C(F)(F)F)cn2)C[C@@H]1CO [Example 107, 2-(6-Oxo-5-(trifluoromethyl)-1,6-dihydropyridin-3-yl)ethyl (R)-2-(hydroxymethyl)-4-(5-(trifluoromethyl)pyrimidin-2-yl)piperazine-1-carboxylate] | 0.72 |

— patent US20240351997A1, “NOVEL PARP7 INHIBITOR AND USE THEREOF” (SHANGHAI QILU PHARMACEUTICAL RESEARCH AND DEVELOPMENT …, priority 2021, published 2024)
